Reference: PMC7175277, “Hydroxylamine Analogue of Agmatine: Magic Bullet for Arginine Decarboxylase” (Biomolecules, 2020)
Values belong to the molecule of their own block, whether it stands above or below them.

Key:
[1] = target: E. coli ODC (Escherichia coli, UniProt P21169); test: E. coli ODC activity assay (HPLC of Put); type: biochemical; settings: partially purified ODC
Experimental: (§1) The purification was performed using a modified procedure of earlier publication. E. coli strain DH5α was grown in Luria-Bertani broth at +37 °C with shaking (200 rpm) overnight. The cells were collected by centrifugation and the pellet was homogenized with Potter-Elvehjem in 10 volumes (w/v) of ice-cold 50 mM Tris-HCl pH 7.4, 1 mM DTT. The cell debris was removed by centrifugation at 12,000 g for 30 min at +4 °C. Solid (NH4)2SO4 was added to the supernatant, and the pellet precipitating between 39% and 53% saturation was separated. The precipitate was resuspended in ice-cold buffer containing 50 mM Tris-HCl pH 7.4 and 1 mM DTT and desalted by passage through Sephadex G-25 column (NAP-10 column, GE Healthcare). The protein concentration was measured with Bio-Rad protein reagent, and the partially purified enzyme preparation was mixed with 20% glycerol and aliquoted for storage at −80 °C.
The ADC reaction mixture contained 50 mM Tris-HCl pH 7.8, 4 mM MgCl2, 1 mM DTT, 1.0 or 0.1 mM PLP and 20 μg of partially purified enzyme preparation in a total volume of 162 μL. The ODC reaction mixture contained 50 mM Tris-HCl pH 7.8, 1 mM EDTA, 2.4 mM DTT, 0.1 mM PLP and 20 μg of partially purified enzyme preparation. […] After incubation for 30 min (ADC) or 20 min (ODC) at +40 °C, 20 μL of 50% sulphosalicylic acid containing 50 μM diaminoheptane (internal standard) was added and the samples were analyzed for the content of agmatine (ADC) and Put (ODC) with HPLC as described previously. The kinetic parameters and IC50 values were determined with the aid of GraphPad Prism version 5.03 using nonlinear regression analysis.

[2] = tested on: DU145 prostate cancer cells; test: Growth of DU145 cells; type: cell-based; settings: SC (1 mM) alone; 3 days
Experimental: (§2) DU145 prostate cancer cells were cultured in high-glucose Dulbecco’s Modified Eagle’s Medium supplemented with 10% heat-inactivated fetal bovine serum, 2 mM L-glutamine and 50 μg/mL gentamycin (all from Sigma-Aldrich). The cells were plated on 6-well plates and allowed to attach overnight. […] The cells were harvested, and the pellet was mixed with 150 μL of 5% sulphosalicylic acid containing 5 μM diaminoheptane (internal standard). Polyamine analysis was carried out as described previously.

[3] = tested on: DU145 prostate cancer cells; test: Intracellular polyamine pools of DU145 cells; type: cell-based; settings: SC (1 mM) alone; 3 days
Experimental: as §2

[4] = tested on: A. chrysogenum WT strain; test: Polyamine content in the fungi, WT strain; type: cell-based, Acremonium chrysogenum; settings: 0.5 mM Spd, 24 h
Experimental: (§3) WT and HY A. chrysogenum strains were preliminarily grown in tubes on CD medium slants for 7 days at 25 °C and used for the inoculation of 30 mL of a liquid CD medium (seed medium). The strains were cultivated on CD medium for 48 h at 26 °C and inoculated into ten volumes of CD medium. The fermentation was carried out for 120 h at 26 °C in 250-mL Erlenmeyer flasks on a CERTOMAT BS-1 shaker (Sartorius, Germany) at 230 rpm, as described earlier. After 24 h of culture, 1 mL aliquots were removed, fungi were separated by centrifugation (15 min, 14,000 g) and washed with H2O (3 × 2 mL). The washed biomass was subjected to three cycles of freezing (−80 °C) and thawing at 20 °C in 5% perchloric acid. After the final thaw, samples were vortexed for 2 min and centrifuged for 10 min at 14,000 g. The supernatant was used for the determination of polyamine content.
(§4) The dry biomass was prepared from 2 mL aliquots of fermentation media after 24 h. The biomass was separated by centrifugation (15 min, 14,000 g), the precipitated fungi cells were washed in triplicate with 10 volumes of H2O, dried at 80 °C for 96 h to a constant weight and used for normalization of polyamine content in the fungi.
(§5) Polyamines were determined by HPLC from 50 µL of the 5% perchloric acid supernatant using a precolumn modification with Dans-Cl following mostly the published protocol. 1,7-Diaminoheptane was used as an internal standard and proline applied to quench the dansylation reaction. The solution of the dansylated polyamines in toluene (2 μL) was mixed with 50% aq. ethanol (13 µL) and applied on a reversed phase column (Cosmosil C18-MS-II, 250 × 4.6 mm, 5 µm). The column was eluted (1 mL/min) with the gradient: 0 min—0% B; 4 min—65% B; 17 min—65% B; 19 min—100% B, 23 min—100% B, 25 min—0% B; 30 min—0% B. System A—40% acetonitrile, 60% H2O. System B—80% acetonitrile, 20% tetrahydrofuran. Column temperature 40 °C, pressure 80–120 bar, fluorescent detection: λex 340 nm, λem 530 nm (detector RF-20A, Shimadzu Scientific Instrument, Columbia, MD, USA).

[5] = tested on: A. chrysogenum HY strain; test: Polyamine content in the fungi, HY strain; type: cell-based, Acremonium chrysogenum; settings: 0.5 mM Spd, 24 h
Experimental: as §3, §4, §5

[6] = substrate: N=C(N)NCCC[C@H](N)C(=O)O; test: E. coli ADC activity assay (HPLC of agmatine); type: biochemical; settings: other: partially purified ADC, pH 7.8
Experimental: as §1
[…] After incubation for 30 min (ADC) or 20 min (ODC) at +40 °C, 20 μL of 50% sulphosalicylic acid containing 50 μM diaminoheptane (internal standard) was added and the samples were analyzed for the content of agmatine (ADC) and Put (ODC) with HPLC as described previously. The kinetic parameters and IC50 values were determined with the aid of GraphPad Prism version 5.03 using nonlinear regression analysis.

Sequence of E. coli ODC (P21169 whole entry): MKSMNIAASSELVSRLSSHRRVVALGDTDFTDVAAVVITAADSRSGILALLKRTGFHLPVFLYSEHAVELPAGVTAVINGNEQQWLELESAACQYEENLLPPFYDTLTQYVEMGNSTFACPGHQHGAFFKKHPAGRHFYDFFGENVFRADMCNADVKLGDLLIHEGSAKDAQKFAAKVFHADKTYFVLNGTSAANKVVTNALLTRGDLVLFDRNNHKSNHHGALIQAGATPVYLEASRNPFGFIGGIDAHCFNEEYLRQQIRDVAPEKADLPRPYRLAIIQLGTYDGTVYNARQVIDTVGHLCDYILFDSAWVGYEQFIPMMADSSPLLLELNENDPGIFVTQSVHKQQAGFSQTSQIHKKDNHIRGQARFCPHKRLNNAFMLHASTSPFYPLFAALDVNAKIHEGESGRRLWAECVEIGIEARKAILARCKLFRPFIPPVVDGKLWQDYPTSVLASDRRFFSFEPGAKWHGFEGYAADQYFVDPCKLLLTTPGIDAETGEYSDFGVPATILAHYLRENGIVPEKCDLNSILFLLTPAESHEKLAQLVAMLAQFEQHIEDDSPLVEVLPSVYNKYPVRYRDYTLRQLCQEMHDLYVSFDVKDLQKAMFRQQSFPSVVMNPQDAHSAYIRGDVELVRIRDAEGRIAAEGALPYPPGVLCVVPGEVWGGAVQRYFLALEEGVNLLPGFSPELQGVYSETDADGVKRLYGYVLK

Vmax [1]: 709 ± 7 nmol/h/mg protein
Molecule: NCCC[C@H](N)C(=O)O [L-Orn, L-ornithine]

Molecule: NNC(N)=O [SC, semicarbazide, reference compound]
Growth [2]: 1.00 ± 0.04 Fold | Put [3]: 1258 ± 157 pmol/mg Protein | Spd [3]: 6483 ± 282 pmol/mg Protein | Spm [3]: 3582 ± 146 pmol/mg Protein

Molecule: NCCCCNCCCN [Spd, spermidine]
Put [4]: <10 pmol/mg Dry Weight | Spd [4]: 12,200 ± 2180 pmol/mg Dry Weight | Spm [4]: 70 ± 10 pmol/mg Dry Weight | Put [5]: <10 pmol/mg Dry Weight | Spd [5]: 39,180 ± 4840 pmol/mg Dry Weight | Spm [5]: 330 ± 10 pmol/mg Dry Weight

B1: E. coli ADC (Escherichia coli K-12) (protein)
chain: MSDDMSMGLPSSAGEHGVLRSMQEVAMSSQEASKMLRTYNIAWWGNNYYDVNELGHISVCPDPDVPEARVDLAQLVKTREAQGQRLPALFCFPQILQHRLRSINAAFKRARESYGYNGDYFLVYPIKVNQHRRVIESLIHSGEPLGLEAGSKAELMAVLAHAGMTRSVIVCNGYKDREYIRLALIGEKMGHKVYLVIEKMSEIAIVLDEAERLNVVPRLGVRARLASQGSGKWQSSGGEKSKFGLAATQVLQLVETLREAGRLDSLQLLHFHLGSQMANIRDIATGVRESARFYVELHKLGVNIQCFDVGGGLGVDYEGTRSQSDCSVNYGLNEYANNIIWAIGDACEENGLPHPTVITESGRAVTAHHTVLVSNIIGVERNEYTVPTAPAEDAPRALQSMWETWQEMHEPGTRRSLREWLHDSQMDLHDIHIGYSSGIFSLQERAWAEQLYLSMCHEVQKQLDPQNRAHRPIIDELQERMADKMYVNFSLFQSMPDAWGIDQLFPVLPLEGLDQVPERRAVLLDITCDSDGAIDHYIDGDGIATTMPMPEYDPENPPMLGFFMVGAYQEILGNMHNLFGDTEAVDVFVFPDGSVEVELSDEGDTVADMLQYVQLDPKTLLTQFRDQVKKTDLDAELQQQFLEEFEAGLYGYTYLEDE
notes: The kinetic parameters determined for the partially purified biosynthetic ADC from E. coli; endogenous in cells; host or cells: E. coli DH5α (39-53% ammonium sulphate fraction of the lysate, desalted)
Km [6]: 158 ± 5 µM | Vmax [6]: 546 ± 5 nmol/h/mg protein
